# Read-outs that look alike come from different tables or passages of the source.
# Key:
# HCC1954 cells = experiment: Breast cancer growth inhibitory activity (Cell-titer Glo, 72 h); type: cell-based; conditions: Homo sapiens
# Experimental: (§1) Breast cancer cells in a culture solution (100 μL volume/well, 2,500 SK-Br3 cells/well, 1,000 HCC-1954 cells/well) were seeded into a tissue culture-treated 96-well plate and cultured in a cell incubator for 24 hours. […] Cell-titer Glo™ reagent (50 μL of a 5-fold diluted solution, Promega) was added to each well, and luminescence signals were measured using an Envision™ plate reader (PerkinElmer, USA). Titration curve fitting and IC50 values were generated using Prism 7.0 s/w (GraphPad, San Diego, USA).
# SK-Br3 cells = experiment: as above; type: cell-based; conditions: Homo sapiens, SK-BR-3
# Experimental: as §1
# [1] = Body weight in SK-Br3 xenograft model; type: in vivo, mouse; conditions: 20 mg/kg, i.p. twice a week
# Experimental: A mouse efficacy experiment was conducted after obtaining approval from the Laboratory Animal Ethics Committee of GenNBio (Review No.: GN-IACUC-Research 22-02-07). SK-Br3 and HCC-1954 cells (1×10^6 cells each) mixed with Matrigel (BD Biosciences) were […] injected into 5-week-old female Balb/c nude mice (Orient Bio, Seongnam, Republic of Korea). After tumors reached a size of about 100 mm^3, the compound, trastuzumab (20 mg/kg), and the like were intraperitoneally injected into mice (n=8 per group)(vehicle: 8% DMSO, 4% Tween-80, 88% PBS). The tumor size was measured twice weekly for about 4 weeks and calculated as follows. Volume (mm^3)=(a×b^2)/2; “a”, maximum diameter; “b”, vertical diameter
# IRS1 and WNT1 = experiment: Western blot, CDK12 downstream gene expression; type: cell-based; conditions: SK-Br3 and HCC1954 cell lines, 40 and 200 nM, 24 hours
# CYP1A2 = CYP1A2 (Homo sapiens (Human), UniProt P05177); experiment: in vitro; type: in vitro ADME
# CYP1A2, sequence (P05177 whole entry): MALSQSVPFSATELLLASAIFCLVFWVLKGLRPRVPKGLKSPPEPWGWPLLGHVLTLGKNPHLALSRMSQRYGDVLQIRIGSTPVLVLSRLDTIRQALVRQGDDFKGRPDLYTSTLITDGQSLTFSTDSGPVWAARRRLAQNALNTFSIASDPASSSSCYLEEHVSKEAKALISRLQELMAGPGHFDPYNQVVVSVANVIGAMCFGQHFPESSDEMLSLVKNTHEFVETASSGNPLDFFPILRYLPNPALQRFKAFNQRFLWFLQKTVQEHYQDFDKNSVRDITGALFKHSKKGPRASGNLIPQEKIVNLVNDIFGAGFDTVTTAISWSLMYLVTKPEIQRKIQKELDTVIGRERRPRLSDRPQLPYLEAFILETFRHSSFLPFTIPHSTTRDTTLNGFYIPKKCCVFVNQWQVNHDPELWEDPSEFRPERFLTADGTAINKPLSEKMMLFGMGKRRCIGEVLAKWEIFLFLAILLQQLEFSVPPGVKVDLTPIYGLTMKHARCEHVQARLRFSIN
# Experimental: (§2) 5 derivatives were evaluated for in vitro metabolic stability in liver microsomes from three different species (human, dog, mouse) and for inhibitory activity against 5 representative cytochrome P450 enzymes (CYPs)(Table 3). In terms of liver microsomal stability, the 2′-pyridyl group is more suitable than the α-methyl-4′-pyridyl group as the terminal aromatic group at position 6, and the aminopyrimidyl group is better than the aminopyridyl group as a substituent at position 2.
# cyclinK = experiment: Western blot, cyclinK degradation; type: cell-based; conditions: SK-Br3 and HCC1954 cell lines, 40 and 200 nM, 2 hours
# [2] = tested on: Pol II CTD (Ser2) phosphorylation; experiment: Western blot, Pol II CTD Ser2 phosphorylation; type: cell-based; conditions: SK-Br3 and HCC1954 cell lines, 40 and 200 nM, 2 hours
# CYP2C19 = CYP2C19 (Homo sapiens (Human), UniProt P33261); experiment: CYP inhibitory activity; type: in vitro ADME; conditions: read-out: CYP % activity at 10 μM concentration 2C19
# CYP2C19, sequence (P33261 whole entry): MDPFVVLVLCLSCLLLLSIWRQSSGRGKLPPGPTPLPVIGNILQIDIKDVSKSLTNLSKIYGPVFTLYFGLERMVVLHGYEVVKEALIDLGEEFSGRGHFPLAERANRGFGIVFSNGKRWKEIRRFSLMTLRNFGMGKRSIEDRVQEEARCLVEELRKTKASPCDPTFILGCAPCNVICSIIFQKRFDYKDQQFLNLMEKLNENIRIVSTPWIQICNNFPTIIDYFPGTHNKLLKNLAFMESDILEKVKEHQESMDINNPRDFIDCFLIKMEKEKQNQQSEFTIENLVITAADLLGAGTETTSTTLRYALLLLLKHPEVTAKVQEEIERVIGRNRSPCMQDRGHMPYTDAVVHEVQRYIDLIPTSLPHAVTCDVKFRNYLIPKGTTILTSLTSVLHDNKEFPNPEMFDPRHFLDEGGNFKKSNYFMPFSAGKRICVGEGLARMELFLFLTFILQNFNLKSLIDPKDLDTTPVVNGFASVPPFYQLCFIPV
# Experimental: as §2
# CYP2D6 = CYP2D6 (Homo sapiens (Human), UniProt P10635); experiment: CYP inhibitory activity; type: in vitro ADME; conditions: read-out: CYP % activity at 10 μM concentration 2D6
# CYP2D6, sequence (P10635 whole entry): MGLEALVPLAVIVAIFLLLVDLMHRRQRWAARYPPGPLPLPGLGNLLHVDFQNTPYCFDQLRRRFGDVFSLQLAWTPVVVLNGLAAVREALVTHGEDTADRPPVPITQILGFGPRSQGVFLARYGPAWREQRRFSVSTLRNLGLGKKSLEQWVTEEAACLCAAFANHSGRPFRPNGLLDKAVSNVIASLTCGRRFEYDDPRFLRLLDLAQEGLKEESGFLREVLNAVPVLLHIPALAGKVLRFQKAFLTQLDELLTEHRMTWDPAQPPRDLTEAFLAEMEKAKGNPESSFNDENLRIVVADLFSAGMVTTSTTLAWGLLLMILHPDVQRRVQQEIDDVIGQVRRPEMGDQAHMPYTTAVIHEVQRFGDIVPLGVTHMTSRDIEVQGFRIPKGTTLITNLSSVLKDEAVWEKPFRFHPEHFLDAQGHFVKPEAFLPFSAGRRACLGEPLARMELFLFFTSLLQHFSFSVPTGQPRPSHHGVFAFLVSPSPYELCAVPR
# Experimental: as §2
# CYP2C9 = CYP2C9 (Homo sapiens (Human), UniProt P11712); experiment: CYP inhibitory activity; type: in vitro ADME; conditions: read-out: CYP % activity at 10 μM concentration 2C9
# CYP2C9, sequence (P11712 whole entry): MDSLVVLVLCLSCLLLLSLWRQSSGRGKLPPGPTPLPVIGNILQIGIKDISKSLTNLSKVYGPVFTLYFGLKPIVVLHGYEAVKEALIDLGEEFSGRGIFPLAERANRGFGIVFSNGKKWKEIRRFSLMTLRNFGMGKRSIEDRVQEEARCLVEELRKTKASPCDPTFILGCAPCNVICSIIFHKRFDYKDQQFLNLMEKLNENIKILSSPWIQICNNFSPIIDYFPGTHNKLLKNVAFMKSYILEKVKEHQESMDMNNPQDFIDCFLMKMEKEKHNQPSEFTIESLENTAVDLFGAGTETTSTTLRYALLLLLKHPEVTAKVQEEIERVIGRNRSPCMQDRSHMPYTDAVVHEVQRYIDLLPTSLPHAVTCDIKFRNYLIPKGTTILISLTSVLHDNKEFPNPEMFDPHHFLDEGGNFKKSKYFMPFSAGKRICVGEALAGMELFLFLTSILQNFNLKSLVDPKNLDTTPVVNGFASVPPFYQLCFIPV
# Experimental: as §2
# CYP3A4 = CYP3A4 (Homo sapiens (Human), UniProt P08684); experiment: CYP inhibitory activity; type: in vitro ADME; conditions: read-out: CYP % activity at 10 μM concentration 3A4
# CYP3A4, sequence (P08684 whole entry): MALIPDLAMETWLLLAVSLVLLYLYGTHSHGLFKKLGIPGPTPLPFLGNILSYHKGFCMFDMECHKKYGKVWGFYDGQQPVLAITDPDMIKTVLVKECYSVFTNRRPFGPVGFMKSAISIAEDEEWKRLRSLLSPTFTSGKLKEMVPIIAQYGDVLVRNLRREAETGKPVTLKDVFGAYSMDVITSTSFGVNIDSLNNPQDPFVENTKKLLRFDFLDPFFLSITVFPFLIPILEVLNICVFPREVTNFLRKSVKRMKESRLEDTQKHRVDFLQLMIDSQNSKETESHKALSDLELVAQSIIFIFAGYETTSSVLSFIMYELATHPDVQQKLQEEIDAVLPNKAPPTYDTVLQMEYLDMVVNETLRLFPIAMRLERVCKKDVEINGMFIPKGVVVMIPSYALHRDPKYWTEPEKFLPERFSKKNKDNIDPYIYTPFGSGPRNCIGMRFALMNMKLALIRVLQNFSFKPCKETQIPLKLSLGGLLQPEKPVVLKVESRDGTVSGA
# Experimental: as §2
# CDK12/CyclinK = CDK12/CyclinK (Homo sapiens (Human), UniProt Q9NYV4); experiment: CDK12/cyclinK enzyme activity; type: biochemical; conditions: in vitro
# CDK12/CyclinK, sequence (Q9NYV4 whole entry): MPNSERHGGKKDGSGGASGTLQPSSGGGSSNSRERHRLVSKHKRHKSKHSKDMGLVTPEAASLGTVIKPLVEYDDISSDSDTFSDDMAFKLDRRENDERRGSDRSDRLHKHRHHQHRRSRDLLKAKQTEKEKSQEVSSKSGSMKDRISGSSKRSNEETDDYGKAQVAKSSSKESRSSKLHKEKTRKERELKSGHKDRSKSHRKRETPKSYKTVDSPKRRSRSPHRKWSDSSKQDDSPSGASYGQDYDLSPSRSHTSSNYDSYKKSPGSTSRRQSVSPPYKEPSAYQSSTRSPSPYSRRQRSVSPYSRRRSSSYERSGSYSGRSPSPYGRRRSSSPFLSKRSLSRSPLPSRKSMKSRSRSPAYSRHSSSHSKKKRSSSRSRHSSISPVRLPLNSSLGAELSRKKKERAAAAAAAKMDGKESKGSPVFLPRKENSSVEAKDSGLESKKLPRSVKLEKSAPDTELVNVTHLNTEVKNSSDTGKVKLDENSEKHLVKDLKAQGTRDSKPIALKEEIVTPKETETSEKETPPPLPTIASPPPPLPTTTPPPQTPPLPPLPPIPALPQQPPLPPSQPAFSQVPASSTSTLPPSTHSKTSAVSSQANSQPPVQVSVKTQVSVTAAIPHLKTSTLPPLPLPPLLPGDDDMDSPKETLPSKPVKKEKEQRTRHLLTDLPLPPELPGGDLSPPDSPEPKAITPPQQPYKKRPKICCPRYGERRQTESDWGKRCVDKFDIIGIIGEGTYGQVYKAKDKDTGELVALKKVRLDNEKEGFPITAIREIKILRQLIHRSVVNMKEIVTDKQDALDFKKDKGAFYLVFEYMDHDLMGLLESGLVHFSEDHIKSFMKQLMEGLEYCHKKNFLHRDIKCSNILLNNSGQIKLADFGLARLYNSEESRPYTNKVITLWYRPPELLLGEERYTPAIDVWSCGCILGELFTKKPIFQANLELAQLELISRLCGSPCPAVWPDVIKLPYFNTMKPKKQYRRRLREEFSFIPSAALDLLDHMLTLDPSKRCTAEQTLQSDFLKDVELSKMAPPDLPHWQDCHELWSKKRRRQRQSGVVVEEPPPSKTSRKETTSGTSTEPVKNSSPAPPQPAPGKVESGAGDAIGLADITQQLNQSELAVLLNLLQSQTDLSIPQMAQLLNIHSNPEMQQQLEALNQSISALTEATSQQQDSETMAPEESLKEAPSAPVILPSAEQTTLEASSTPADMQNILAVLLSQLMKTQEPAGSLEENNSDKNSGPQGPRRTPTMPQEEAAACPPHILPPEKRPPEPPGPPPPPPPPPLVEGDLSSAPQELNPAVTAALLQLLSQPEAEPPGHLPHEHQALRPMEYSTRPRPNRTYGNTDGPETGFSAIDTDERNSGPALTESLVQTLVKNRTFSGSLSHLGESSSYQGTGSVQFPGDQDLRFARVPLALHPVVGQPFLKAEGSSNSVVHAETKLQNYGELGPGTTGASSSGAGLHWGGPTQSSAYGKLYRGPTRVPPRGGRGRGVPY
# CDK12/CyclinK, sequence (O75909 whole entry partner): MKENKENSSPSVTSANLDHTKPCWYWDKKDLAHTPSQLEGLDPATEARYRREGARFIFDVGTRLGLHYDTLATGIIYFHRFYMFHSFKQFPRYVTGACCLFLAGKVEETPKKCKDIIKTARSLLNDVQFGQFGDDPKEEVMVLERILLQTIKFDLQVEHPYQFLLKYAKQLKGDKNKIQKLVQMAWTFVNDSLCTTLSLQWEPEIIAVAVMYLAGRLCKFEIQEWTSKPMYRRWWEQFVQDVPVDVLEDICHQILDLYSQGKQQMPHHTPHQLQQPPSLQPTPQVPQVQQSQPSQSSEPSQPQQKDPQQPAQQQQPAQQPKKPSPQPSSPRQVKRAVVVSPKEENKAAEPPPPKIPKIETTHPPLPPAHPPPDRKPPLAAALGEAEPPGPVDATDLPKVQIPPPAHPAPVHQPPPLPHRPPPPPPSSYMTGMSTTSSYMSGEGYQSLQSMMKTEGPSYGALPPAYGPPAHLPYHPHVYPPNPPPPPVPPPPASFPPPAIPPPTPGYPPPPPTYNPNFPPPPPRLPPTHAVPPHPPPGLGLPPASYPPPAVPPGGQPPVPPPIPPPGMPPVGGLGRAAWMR
# [3] = Liver microsomal metabolic stability; type: in vitro ADME; conditions: for Liver microsomal metabolic stability (% remaining amount) Dog: dog liver microsomes; for Liver microsomal metabolic stability (% remaining amount) Human: human liver microsomes; for Liver microsomal metabolic stability (% remaining amount) Mouse: mouse liver microsomes
# Experimental: as §2
activity at 10 µM (CYP1A2) [%],activity at 10 µM (CYP2C19) [%],activity at 10 µM (CYP2D6) [%],activity at 10 µM (CYP2C9) [%],activity at 10 µM (CYP3A4) [%],IC50 (CDK12/CyclinK) [µM],Liver microsomal metabolic stability (% remaining amount) Dog [3] [%],Liver microsomal metabolic stability (% remaining amount) Human [3] [%],Liver microsomal metabolic stability (% remaining amount) Mouse [3] [%],"GI50 (HCC1954 cells; 72 hours, read-out: HCC1954 (GI50/μM)) [µM]","GI50 (SK-Br3 cells; 72 hours, read-out: SK-Br3 (GI50/μM)) [µM]",Structure (SMILES),GI50 (HCC1954 cells; read-out: HCC1954 GI50) [µM],GI50 (SK-Br3 cells; read-out: SK-Br3 GI50) [µM],mouse body weight [1],expression of IRS1 and WNT1 (IRS1 and WNT1),expression of IRS1 and WNT1 (IRS1 and WNT1; listed as Compound 54),cyclinK degradation (cyclinK),cyclinK degradation (cyclinK; listed as Compound 54),Pol II CTD (Ser2) phosphorylation [2],Pol II CTD (Ser2) phosphorylation ([2]; listed as Compound 54)
,,,,,,,,,,,"CCc1cnn2c(NCc3ccc[n+]([O-])c3)cc(N3CCCC[C@H]3CCO)nc12 [Dinaciclib, reference compound]",0.012,0.012,toxicity with a decrease in body weight in mice,,,,,,
87.6,72.6,92.1,81.6,92.8,0.077,67.6,100,85.0,,,"CCn1cnc2c(NCc3ccc(-c4ccccn4)nc3)nc(-c3cnc(N)nc3)nc21 [Example 54, N-([2,2′-bipyridin]-5-ylmethyl)-2-(2-aminopyrimidin-5-yl)-9-ethyl-9H-purin-6-amine]",,,,inhibited the expression of IRS1 and WNT1,strongly suppressed,induced cyclinK degradation,cyclinK levels were greatly suppressed in a dose-dependent manner,inhibited Pol II CTD (Ser2) phosphorylation,strong dose-dependent suppression of Pol II phosphorylation
68.6,73.9,88.8,67.5,31.8,0.056,79.5,27.3,34.0,0.156,0.192,"CCn1cnc2c(NCc3ccc(-c4ccnc(C)c4)nc3)nc(-c3cncnc3)nc21 [Example 51, 9-ethyl-N-((2′-methyl-[2,4′-bipyridin]-5-yl)methyl)-2-(pyrimidin-5-yl)-9H-purin-6-amine]",,,,,,,,,

# Reference: patent US20250101023A1, “HETEROARYL DERIVATIVE AND USES THEREOF” (IUCF-HYU (INDUSTRY-UNIVERSITY COOPERATION FOUNDATION …, priority 2022, published 2025)
